Source: paper PMC9221290, “Alkaloids of Dicranostigma franchetianum (Papaveraceae) and Berberine Derivatives as a New Class of Antimycobacterial Agents” (Biomolecules, 2022)
≈ marks a conversion by molar mass, not a printed value. Where two headings read alike, the source gives them in different places.

Columns and labels:
[1] = system: Mtb H37Ra ITM-M006710 (ATCC 9431); experiment: Antimycobacterial microdilution broth assay (resazurin), Mtb H37Ra; format: cell-based, Mycobacterium tuberculosis; details: Mycobacterium tuberculosis, read-out: MIC Mtb H37Ra
[2] = system: Mycolicibacterium aurum DSM 43999 (ATCC 23366); experiment: Antimycobacterial microdilution broth assay (resazurin), M. aurum; format: cell-based; details: Mycolicibacterium aurum, 72 h
[3] = system: Mycobacterium avium DSM 44156 (ATCC 25291); experiment: Antimycobacterial microdilution broth assay (resazurin), M. avium; format: cell-based; details: Mycobacterium avium, 96 h, read-out: MIC M. avium, microdilution broth, resazurin, 96 h
[4] = system: Mycobacterium kansasii DSM 44162 (ATCC 12478); experiment: Antimycobacterial microdilution broth assay (resazurin), M. kansasii; format: cell-based; details: Mycobacterium kansasii, 96 h
[5] = system: Mycolicibacterium smegmatis DSM 43465 (ATCC 607); experiment: Antimycobacterial microdilution broth assay (resazurin), M. smegmatis; format: cell-based; details: Mycolicibacterium smegmatis, 48 h
[6] = system: five Mycobacterium or Mycolicibacterium strains; experiment: organism not typed; format: cell-based; details: read-out: MICs against all tested mycobacterial strains
[7] = system: HepG2 cells
[8] = system: HepG2 cells; experiment: cells; details: Homo sapiens, HepG2, 24 h
[9] = in vitro; details: human, % of cell viability compared to control; for viability at 0.1 µM: HepG2, 0.1 µM; for viability at 1 µM: HepG2, 1 µM; for viability at 5 µM: HepG2, 5 µM; for viability at 10 µM: HepG2, 10 µM; for viability at 20 µM: HepG2, 20 µM; for viability at 30 µM: HepG2, 30 µM; for viability at 40 µM: HepG2, 40 µM; for viability at 50 µM: HepG2, 50 µM; for viability at 25 µM: HepG2, 25 µM; for viability at 75 µM: HepG2, 75 µM; for viability at 100 µM: HepG2, 100 µM
[10] = system: M. intracellulare; details: cited from earlier work
[11] = system: Mycolicibacterium smegmatis; design: method as in PMID 9784149; details: cited from earlier work
[12] = system: pulmonary tuberculosis; design: method as in PMID 34745081; details: mice with pulmonary tuberculosis; cited from earlier work
[13] = system: Aspergillus fumigatus; design: method as in PMID 21341176; details: read-out: IC50 against Aspergillus fumigatus; cited from earlier work
[14] = system: methicillin-resistant Staphylococcus aureus; design: method as in PMID 21341176; details: read-out: IC50 against methicillin-resistant Staphylococcus aureus; cited from earlier work
[15] = 120 h, microdilution broth, resazurin, 120 h
[16] = calculated from MIC (µg/mL) and MW
[17] = read-out: MIC M. aurum, microdilution broth, resazurin, 72 h
[18] = read-out: MIC M. kansasii, microdilution broth, resazurin, 96 h
[19] = read-out: MIC M. smegmatis, microdilution broth, resazurin, 48 h
[20] = read-out: HepG2 IC50, MTT, 24 h incubation
[21] = read-out: HepG2 IC50, 1. measurement, MTT, 24 h, single measurement 1
[22] = read-out: HepG2 IC50, 2. measurement, MTT, 24 h, single measurement 2
[23] = read-out: HepG2 IC50, 3. measurement, MTT, 24 h, single measurement 3

| SMILES | MIC [1, 15] [µg/mL] | MIC [1, 16] [µM] | MIC [2, 17] [µg/mL] | MIC [3] [µg/mL] | MIC [4, 18] [µg/mL] | MIC [5, 19] [µg/mL] | MIC [6] [µg/mL] | SI (selectivity index) [7] | IC50 [8, 21] [µM] | IC50 [8, 22] [µM] | IC50 [8, 23] [µM] | IC50 [8, 20] [µM] | viability at 1 µM ([9]; 1. measurement) [%] | viability at 5 µM ([9]; 1. measurement) [%] | viability at 10 µM ([9]; 1. measurement) [%] | viability at 50 µM ([9]; 1. measurement) [%] | viability at 1 µM ([9]; 2. measurement) [%] | viability at 5 µM ([9]; 2. measurement) [%] | viability at 10 µM ([9]; 2. measurement) [%] | viability at 50 µM ([9]; 2. measurement) [%] | other results |
| --- | --- | --- | --- | --- | --- | --- | --- | --- | --- | --- | --- | --- | --- | --- | --- | --- | --- | --- | --- | --- | --- |
| COc1ccc2cc3[n+](cc2c1OCc1ccccc1Br)CCc1cc2c(cc1-3)OCO2 [16e, 9-O-(2-brombenzyl)berberine chloride] | 1.56 | 2.96 | 0.78 | 1.56 | 3.12 | 0.39 | 0.39 to 3.12 | 3.92 | 11.5 | 11.8 | 12 | 11.6 ± 0.29 | 96.3 | 66.9 | 48.6 | 10.5 | 93.8 | 66.2 | 53.6 | 2.08 | IC50 [7, 20]: 11.8 ± 0.29 µM; viability at 0.1 µM ([9]; 1. measurement): 102%; viability at 20 µM ([9]; 1. measurement): 40.7%; viability at 30 µM ([9]; 1. measurement): 34.3%; viability at 40 µM ([9]; 1. measurement): 24.6%; viability at 0.1 µM ([9]; 2. measurement): 95.5%; viability at 20 µM ([9]; 2. measurement): 46.1%; viability at 30 µM ([9]; 2. measurement): 36.5%; viability at 40 µM ([9]; 2. measurement): 16.2%; viability at 0.1 µM ([9]; 3. measurement): 92%; viability at 1 µM ([9]; 3. measurement): 98.5%; viability at 5 µM ([9]; 3. measurement): 68%; viability at 10 µM ([9]; 3. measurement): 53.7%; viability at 20 µM ([9]; 3. measurement): 45.1%; viability at 30 µM ([9]; 3. measurement): 34.5%; viability at 40 µM ([9]; 3. measurement): 14.8%; viability at 50 µM ([9]; 3. measurement): 2.75% |
| COc1ccc2cc3[n+](cc2c1OC)CCc1cc2c(cc1-3)OCO2 [compound 16, berberine] | 125 | 336 |  | 31.2 |  |  |  |  |  |  |  |  |  |  |  |  |  |  |  |  | MIC ([2]; read-out: MIC M. aurum): 62.5 µg/mL; MIC ([4]; read-out: MIC M. kansasii): 31.2 µg/mL; MIC ([5]; microdilution broth, resazurin, read-out: MIC M. smegmatis): 62.5 µg/mL; MIC against M. intracellulare [10]: 1.56 µg/mL; MIC against M. intracellulare ([10]; ref Gentry et al. 1998): 200 µg/mL; MIC against Mycolicibacterium smegmatis [11]: 25 µg/mL; effects on bacterial burden [12]: no additive or synergistic effects; lung pathology [12]: decreased lung pathology |
| COc1ccc2c(c1OC)C(OC1c3c(ccc(OC)c3OC)-c3ccc4cc5c(cc4c3N1C)OCO5)N(C)c1c-2ccc2cc3c(cc12)OCO3 (stereo not drawn) [compound 5, bis-[6-(5,6-dihydrochelerythrinyl)]ether] | 31.2 | 44 | 31.2 (≈ 43.8 µM) | 31.2 (≈ 43.8 µM) | 31.2 (≈ 43.8 µM) | 31.2 (≈ 43.8 µM) | 15.6 to 31.2 (≈ 21.9 to 43.8 µM) |  |  |  |  |  |  |  |  |  |  |  |  |  | IC50 [13]: 0.9 µM; IC50 [14]: 1 µM |
| CCOC1c2c(ccc(OC)c2OC)-c2ccc3cc4c(cc3c2N1C)OCO4 (stereo not drawn) [compound 3, 6-ethoxydihydrochelerythrine] | 31.2 | 79 | 15.6 (≈ 39.7 µM) | 31.2 (≈ 79.4 µM) | 31.2 (≈ 79.4 µM) | 31.2 (≈ 79.4 µM) | 15.6 to 31.2 (≈ 39.7 to 79.4 µM) |  |  |  |  |  |  |  |  |  |  |  |  |  |  |
| COc1ccc2cc3[n+](cc2c1OCc1cccc(Br)c1)CCc1cc2c(cc1-3)OCO2 [16f, 9-O-(3-brombenzyl)berberine chloride] | 3.12 | 5.93 | 1.56 | 3.12 | 3.12 | 0.78 |  | 2.34 | 14.1 | 17 | 10.5 | 13.9 ± 3.25 | 95.5 | 69.4 | 54.8 | 39.3 | 104 | 76.8 | 56.1 | 32.8 | viability at 25 µM ([9]; 1. measurement): 48.3%; viability at 75 µM ([9]; 1. measurement): 28%; viability at 100 µM ([9]; 1. measurement): 12.3%; viability at 25 µM ([9]; 2. measurement): 52.7%; viability at 75 µM ([9]; 2. measurement): 2.26%; viability at 100 µM ([9]; 2. measurement): 0.77%; viability at 1 µM ([9]; 3. measurement): 90.5%; viability at 5 µM ([9]; 3. measurement): 62.6%; viability at 10 µM ([9]; 3. measurement): 49.4%; viability at 25 µM ([9]; 3. measurement): 43.7%; viability at 50 µM ([9]; 3. measurement): 23.7%; viability at 75 µM ([9]; 3. measurement): 2.27%; viability at 100 µM ([9]; 3. measurement): 1.1% |
